The source of these data is patent US4788306A, “Fluorooxirane carboxylates as hypoglycemic agents” (American Home Products Corporation, priority 1987, dated 1988).

The structures appear in SMILES notation. Structures can show the parent of a compound that is named as a salt. Where two headings read alike, the source gives them in different places.

Data set [1] deals with T1, carnitine palmitoyl transferase in liver mitochondria (Rattus norvegicus, UniProt P32198).
T1 construct: from tissue; host or cells: rat liver mitochondria
T1 sequence (P32198 1-773): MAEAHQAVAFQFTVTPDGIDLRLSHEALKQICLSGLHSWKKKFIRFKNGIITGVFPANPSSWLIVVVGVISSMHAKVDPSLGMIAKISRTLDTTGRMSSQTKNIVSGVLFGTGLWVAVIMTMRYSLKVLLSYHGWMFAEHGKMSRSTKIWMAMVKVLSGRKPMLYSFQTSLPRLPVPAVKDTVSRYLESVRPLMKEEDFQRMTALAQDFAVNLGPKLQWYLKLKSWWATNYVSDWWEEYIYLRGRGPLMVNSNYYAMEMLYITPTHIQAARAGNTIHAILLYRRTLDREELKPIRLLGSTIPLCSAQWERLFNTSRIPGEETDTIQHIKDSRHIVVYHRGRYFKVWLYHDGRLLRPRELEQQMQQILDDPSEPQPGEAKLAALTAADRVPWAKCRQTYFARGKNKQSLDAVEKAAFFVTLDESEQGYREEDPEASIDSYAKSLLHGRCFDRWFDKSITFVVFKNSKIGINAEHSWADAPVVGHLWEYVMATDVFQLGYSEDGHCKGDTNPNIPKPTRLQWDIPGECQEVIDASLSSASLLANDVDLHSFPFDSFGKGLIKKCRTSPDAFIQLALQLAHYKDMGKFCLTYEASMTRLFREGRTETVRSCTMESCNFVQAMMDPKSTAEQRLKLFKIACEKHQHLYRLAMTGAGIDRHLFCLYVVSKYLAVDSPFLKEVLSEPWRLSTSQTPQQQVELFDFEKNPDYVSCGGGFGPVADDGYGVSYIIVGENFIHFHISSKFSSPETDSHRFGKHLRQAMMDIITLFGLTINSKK
Kind of data set: Inhibition of carnitine palmitoyl transferase activity in liver mitochondria. In kind it is biochemical. Conditions: for inhibition at 0.05 µM / inhibition at 0.1 µM / inhibition at 0.5 µM / inhibition at 1 µM / inhibition at 2 µM / inhibition at 5 µM / inhibition at 10 µM / inhibition at 50 µM: read-out: % Inhibition ± SEM, liver; for inhibition at 0.1 µM: 0.10 μM; for inhibition at 0.5 µM: 0.50 μM. The procedure:
(§1) The following assay measures the ability of the compounds of the invention to inhibit the activity of carnitine palmitoyl transferase in liver and heart mitochondria.
(§2) According to this procedure, the following steps are carried out:
(§3) (1) Isolation of Mitochondria
(§4) (a) liver mitochondria: 5 g of liver from a 300 g rat is minced, homogenized with 40 ml (30 ml for heart mitochondria) of 0.25M sucrose, 10 mM Tris and 1 mM EDTA, pH 7.4 and centrifuged at 600 xg for 15 minutes. The decanted supernatant is centrifuged at 7,900 xg for 15 minutes. The resultant pellet is resuspended in 20 ml total (16 ml total for the heart mitochondria) of sucrose buffer and centrifuged 7,900 xg for 15 minutes. The pellet is then resuspended in 30 ml total (11 ml for heart mitochondria) of 0.15M KCl, 5 mM Tris.Cl, pH 7.4 and this is used as the enzyme source.
(§5) To 28 3 ml glass test tubes is added 350 μl of the following mixture:
(§6) 81 mg of FFA free albumin
(§7) 1.5 ml of 0.5 mM palmitoyl CoA
(§8) Then there are added to these test tubes 50 μl of water, 50 μl of 10 mM carnitine and 0.25 μCi^3 H-carnitine, and the tubes are placed in a 30° C. water bath.
(§9) (3) Mitochondrial Suspensions
(§10) Twelve plastic incubation tubes are prepared by adding the following to the tubes:
(§11) To each of the tubes, except 1 and 3, are added 30 μl of 200 mM ATP, 20 μl of 333 mM MgCl2 and 50 μl of 1.5 mg/ml CoA. 800 μl of mitochondria from step (1) above are added to each tube, and the tubes are incubated at room temperature for 20 minutes. The tubes are centrifuged at 7,900 xg for 3 minutes and the resultant pellet is resuspended in 1 ml chilled 150 mM KCl, 5 mM TRIS, pH 7.4.
(§12) 50 μl of mitochondrial suspension from step (3) above is added to the 28 tubes from step (2) as follows: (at 15 second intervals):
(§13) The tubes are incubated for 5 minutes at 30° C. and then there is added to each tube, at 15-second intervals, 50 μl of concentrated HCl, 1.45 ml water and 1 ml of n-butanol. The tubes are mixed, chilled in ice for 20 minutes and then centrifuged for 10 minutes at 2500 rpm to clarify the layers. Thereafter, 500 μl of the upper butanol layer of each tube is pipetted into 100 μl of water and 500 μl butanol saturated water, the tubes are mixed and chilled in ice for 20 minutes and centrifuged again for 10 minutes at 2500 rpm. 200 μl of the butanol layer of each tube is pipetted into a scintillation vial to which is added 10 ml of Aquasol, and the samples are counted in a Packard Tri-Carb Scintillation Counter.
(§14) The results are used to calculated the percentage of inhibition of carnitine palmitoyl transferase by the compounds tested.
When tested in the above assay using liver mitochondria alone, other compounds of the invention give the following results.

In data set [2] the target is T2, carnitine palmitoyl transferase in heart mitochondria (Rattus norvegicus, UniProt Q63704).
T2 construct: to obtain a heart mitochondria fraction; from tissue; host or cells: rat heart mitochondria
T2 sequence (Q63704 1-772): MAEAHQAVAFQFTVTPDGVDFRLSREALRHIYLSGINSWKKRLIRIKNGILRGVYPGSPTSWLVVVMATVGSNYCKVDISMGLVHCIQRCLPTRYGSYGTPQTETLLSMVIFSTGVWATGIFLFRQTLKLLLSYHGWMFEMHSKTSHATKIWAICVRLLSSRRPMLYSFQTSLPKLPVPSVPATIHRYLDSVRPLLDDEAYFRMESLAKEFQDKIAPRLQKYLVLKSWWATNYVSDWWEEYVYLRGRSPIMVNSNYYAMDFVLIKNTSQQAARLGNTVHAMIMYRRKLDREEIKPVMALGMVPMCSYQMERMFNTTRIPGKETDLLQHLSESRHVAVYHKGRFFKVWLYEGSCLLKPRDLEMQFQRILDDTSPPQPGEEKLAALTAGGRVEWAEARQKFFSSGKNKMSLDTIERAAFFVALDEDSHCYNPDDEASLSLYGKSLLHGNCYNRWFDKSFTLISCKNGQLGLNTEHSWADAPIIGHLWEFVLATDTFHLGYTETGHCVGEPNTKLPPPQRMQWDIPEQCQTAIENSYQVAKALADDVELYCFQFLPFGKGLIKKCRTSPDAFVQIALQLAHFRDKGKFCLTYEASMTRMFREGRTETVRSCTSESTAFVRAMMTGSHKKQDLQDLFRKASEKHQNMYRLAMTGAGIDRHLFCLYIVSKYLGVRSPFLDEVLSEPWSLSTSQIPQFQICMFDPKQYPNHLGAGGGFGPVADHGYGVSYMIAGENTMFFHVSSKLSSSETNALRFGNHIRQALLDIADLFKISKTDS
Briefly: Inhibition of carnitine palmitoyl transferase activity in heart mitochondria. It counts as biochemical. Conditions: for inhibition at 0.1 µM: 0.10 μM; for inhibition at 0.5 µM: 0.50 μM. Here is the method: as §1, §2, §3, §4
(b) heart mitochondria: four rat hearts are processed as described in step (a) above to obtain a heart mitochondria fraction.
as §5, §6, §7, §8, §9, §10, §11, §12, §13, §14

For data set [3] the following is noted: Bachmann et al. 1984, Lee et al. 1982 and 1985; cited from earlier work.
[4] abbreviates: Table 2 (Example 10), liver mitochondria alone, read-out: % Inhibition of Hepatic CPTase, IC50.
Where [5] appears, read: Table 1, liver mitochondria, ± SEM, read-out: IC50, liver.
The mark [6] stands for this setting: read-out: % Inhibition ± SEM, heart.
Setting [7] is: 50.0 μM, read-out: % Inhibition ± SEM, heart.
Where [8] appears, read: Example 9, second (untitled) table, liver mitochondria, read-out: Inhibition of Hepatic CPTase, IC50.
The mark [9] stands for this setting: at 50 μM, Example 9, second (untitled) table, read-out: % Maximal Inhibition of Cardiac CTPase at 50 μM.

On to `COC(=O)C1(C(F)CCCCCOc2ccc(Cl)cc2)CO1` (single isomer, unassigned) [3 (isomer A), 2-[6-(4-chlorophenoxy)-1-fluorohexyl]-2-oxiranecarboxylic acid methyl ester], for which the IC50 in data set [1] (setting [4]) was determined as 850 nM.

For the molecule `COC(=O)C1(C(F)CCCCCOc2ccc(Cl)cc2)CO1` (single isomer, unassigned) [3 (isomer B), 2-[6-(4-Chlorophenoxy)-1-fluorohexyl]-2-oxiranecarboxylic acid methyl ester], the IC50 in data set [1] (setting [4]) came to 1750 nM.

As for `COC(=O)C1(C(F)CCCCc2ccccc2)CO1` (single isomer, unassigned) [Example 1 (isomer A), 2-(1-Fluoro-5-phenylpentyl)-2-oxiranecarboxylic acid methyl ester], the IC50 in data set [1] (setting [4]) worked out at 1080 nM.

For the molecule `COC(=O)C1(C(F)CCCCOc2ccc(Cl)cc2)CO1` (single isomer, unassigned) [Example 2 (isomer A), 2-[5-(4-Chlorophenoxy)-1-fluoropentyl]-2-oxiranecarboxylic acid methyl ester], in data set [1], the inhibition at 0.05 µM amounted to 5 ± 3%, the inhibition at 0.1 µM turned out to be 11 ± 5%, the inhibition at 0.5 µM turned out to be 23 ± 7% and the inhibition at 1 µM is 61 ± 9%. Also, in data set [1], the inhibition at 2 µM is 78 ± 7%, the inhibition at 5 µM was found to be 79 ± 8%, the inhibition at 10 µM stood at 80 ± 9% and the inhibition at 50 µM stood at 82 ± 10%. Also, in data set [1] (setting [5]), the IC50 came out at 970 ± 180 nM. For the same molecule, the half-inhibitory concentration (IC50) in data set [1] (setting [4]) came to 970 nM. Moreover, in data set [2] (setting [6]), the inhibition at 0.05 µM worked out at 6 ± 5%, the inhibition at 0.1 µM is 17 ± 5%, the inhibition at 0.5 µM worked out at 18 ± 4% and the inhibition at 1 µM worked out at 34 ± 3%. Further, in data set [2] (setting [6]), the inhibition at 2 µM was found to be 35 ± 3%, the inhibition at 5 µM is 40 ± 4% and the inhibition at 10 µM stood at 50 ± 2%. The inhibition at 50 µM in data set [2] (setting [7]) was determined as 52 ± 4%.

`O=C(O)C1(C(F)CCCCOc2ccc(Cl)cc2)CO1` (single isomer, unassigned) [Example 4, 2-[5-(4-Chlorophenoxy)-1-fluoropentyl]-2-oxiranecarboxylic acid sodium salt]: in data set [1] (setting [4]), the IC50 came out at 500 nM.

As for `O=C(O)C1(C(F)CCCCCOc2ccc(Cl)cc2)CO1` (single isomer, unassigned) [Example 5, 2-[6-(4-Chlorophenoxy)-1-fluorohexyl]-2-oxiranecarboxylic acid sodium salt], the IC50 in data set [1] (setting [4]) amounted to 520 nM.

Consider `CCOC(=O)C1(CCCCCCOc2ccc(Cl)cc2)CO1` (stereo not drawn) [Compound A, 2-[6-(4-chlorophenoxy)hexyl]oxirane-2-carboxylic acid ethyl ester, reference compound], for which, in data set [1], the inhibition at 0.05 µM turned out to be 9 ± 7%, the inhibition at 0.1 µM amounted to 11 ± 6%, the inhibition at 0.5 µM stood at 60 ± 7% and the inhibition at 1 µM was 79 ± 2%. Besides, in data set [1], the inhibition at 2 µM is 82 ± 2%, the inhibition at 5 µM is 86 ± 3%, the inhibition at 10 µM amounted to 83 ± 3% and the inhibition at 50 µM amounted to 85 ± 2%. Also, the IC50 in data set [1] (setting [8]) is 310 nM. Besides, the IC50 in data set [1] (setting [5]) is 330 ± 40 nM. Also, in data set [2] (setting [6]), the inhibition at 0.05 µM was determined as 5 ± 6%, the inhibition at 0.1 µM worked out at 8 ± 7%, the inhibition at 0.5 µM worked out at 36 ± 10% and the inhibition at 1 µM turned out to be 38 ± 15%. In addition, in data set [2] (setting [6]), the inhibition at 2 µM was 51 ± 15%, the inhibition at 5 µM turned out to be 68 ± 11% and the inhibition at 10 µM amounted to 81 ± 1%. Besides, the inhibition at 50 µM in data set [2] (setting [7]) was found to be 84 ± 1%. In addition, in data set [2] (Table 1, heart mitochondria, ± SEM), it took 250 nM to reach half-maximal inhibition (IC50). Also, the inhibition at 50 µM in data set [2] (setting [9]) was determined as 85 ± 2%.

Regarding `COC(=O)C1(C(F)(F)CCCCCOc2ccc(Cl)cc2)CO1` (stereo not drawn) [Example 7 (gem-difluoro compound), 2-[6-(4-Chlorophenoxy)-1,1-difluorohexyl]-2-oxiranecarboxylic acid methyl ester], in data set [1] (setting [8]), the IC50 amounted to 350 nM. In data set [2] (setting [9]), the inhibition at 50 µM is 26 ± 4%.

`O=C(O)C1(C(F)(F)CCCCCOc2ccc(Cl)cc2)CO1` (stereo not drawn) [Example 8, 2-[6-(4-Chlorophenoxy)-1,1-difluorohexyl]-2-oxiranecarboxylic acid sodium salt]: the IC50 in data set [1] (setting [8]) amounted to 250 nM. The inhibition at 50 µM in data set [2] (setting [9]) is 24 ± 6%.

For `CCCCCCCCCCCCCCC1(C(=O)OC)CO1` (stereo not drawn) [methyl ester of 2-tetradecylglycidate], in data set [3], the “cardiac effects from chronic administration, in words” value is “adverse cardiac effects”.
